The results in this text go back to ChEMBL document CHEMBL2074095, “Molecular cloning of PEPT 2, a new member of the H+/peptide cotransporter family, from human kidney” (Biochim Biophys Acta, 1995).

What all share (format): functional, cell-based
Holding throughout (design): scale not given: the % may be the effect or the level left

Assay [1] concerns the target T1, Solute carrier family 15 member 2 (Homo sapiens) (UniProt Q16348).
T1 sequence (whole entry): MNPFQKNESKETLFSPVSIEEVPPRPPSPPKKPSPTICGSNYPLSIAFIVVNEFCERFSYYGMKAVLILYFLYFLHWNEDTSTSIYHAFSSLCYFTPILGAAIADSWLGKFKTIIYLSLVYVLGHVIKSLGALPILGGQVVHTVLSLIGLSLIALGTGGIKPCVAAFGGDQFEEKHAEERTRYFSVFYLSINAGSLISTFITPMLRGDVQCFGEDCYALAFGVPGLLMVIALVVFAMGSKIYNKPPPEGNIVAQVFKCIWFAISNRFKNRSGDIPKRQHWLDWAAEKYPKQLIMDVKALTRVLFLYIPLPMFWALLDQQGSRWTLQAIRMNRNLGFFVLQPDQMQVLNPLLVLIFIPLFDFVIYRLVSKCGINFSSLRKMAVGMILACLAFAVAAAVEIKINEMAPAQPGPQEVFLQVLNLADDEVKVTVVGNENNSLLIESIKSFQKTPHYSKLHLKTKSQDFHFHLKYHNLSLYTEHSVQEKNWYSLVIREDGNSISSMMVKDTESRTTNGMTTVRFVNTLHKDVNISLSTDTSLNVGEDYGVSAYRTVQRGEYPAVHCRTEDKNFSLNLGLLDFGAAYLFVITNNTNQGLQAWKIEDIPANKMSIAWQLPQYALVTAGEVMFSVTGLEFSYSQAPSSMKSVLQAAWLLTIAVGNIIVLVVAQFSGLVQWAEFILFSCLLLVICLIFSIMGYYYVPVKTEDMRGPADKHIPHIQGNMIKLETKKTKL
Briefly: TP_TRANSPORTER: inhibition of Gly-Sar uptake (Gly-Sar: 30 uM, Cephadroxil: 10000 uM) in PEPT2-expressing HeLa cells.

In assay [2] the target is T1, Solute carrier family 15 member 2 (Homo sapiens). Briefly: TP_TRANSPORTER: inhibition of Gly-Sar uptake (Gly-Sar: 30 uM, Cephalexin: 10000 uM) in PEPT2-expressing HeLa cells.
For assay [3] the target is unchanged. Briefly: TP_TRANSPORTER: inhibition of Gly-Sar uptake (Gly-Sar: 30 uM, Ala-Gly-Pro: 10000 uM) in PEPT2-expressing HeLa cells.
Assay [4] shares this target. The assay can be described thus: TP_TRANSPORTER: inhibition of Gly-Sar uptake (Gly-Sar: 30 uM, Gly-Phe: 10000 uM) in PEPT2-expressing HeLa cells.

Each structure is given as a SMILES string. Residues, ends and D or L forms follow the SMILES beside them.

Regarding `CC1=C(C(=O)O)N2C(=O)[C@@H](NC(=O)[C@H](N)c3ccc(O)cc3)[C@H]2SC1`, the Activity in assay [1] was 0%.

As to `CC1=C(C(=O)O)N2C(=O)[C@@H](NC(=O)[C@H](N)c3ccccc3)[C@H]2SC1`, in assay [2], the Activity is 0%.

With `C[C@H](N)C(=O)NCC(=O)N1CCC[C@H]1C(=O)O` (H-Ala-Gly-Pro-OH), in assay [3], the Activity was 0%.

In the case of `NCC(=O)N[C@@H](Cc1ccccc1)C(=O)O` (H-Gly-Phe-OH), the Activity in assay [4] is 0%.
